System: Escherichia coli (α)
Test: Screening of secretion efficiency, alkaline phosphatase expressing strain
Assay type: cell-based
Conditions: surfactant 1 wt %; 37° C., 1 hour; ELISA, anti-His-tag antibody
Excerpt: An alkaline phosphatase (phoA) gene of an Escherichia coli strain W3110 was amplified by the PCR method using primers 1 and 2 (Table 4). After being treated with restriction enzymes NdeI and BamHI, a PCR fragment was bound with an NdeI restriction enzyme site and with a BamHI restriction enzyme site of a pET-22b plasmid (product of Novagen). Then, the plasmid was transformed into an AG1 (DE3) Escherichia coli strain formed by transforming an Escherichia coli strain AG1 (product of TOYOBO Co., LTD.) with use of a λDE3 Lysogenization Kit (product of Novagen). In this manner, an alkaline phosphatase expressing strain (a) was formed.
A pdxA gene of an Escherichia coli strain W3110 was amplified by the PCR method using primers 5 and 6 (Table 4). After being treated with restriction enzymes NdeI and BamHI, a PCR fragment was bound to an NdeI restriction enzyme site and a BamHI restriction enzyme site of a pET-22b plasmid (product of Novagen). Then, the plasmid was transformed into an AG1 (DE3) Escherichia coli strain to form a PdxA expressing strain (γ).
In this manner, culture solutions were prepared.
(2) The strains were collected using a centrifuge (4,000 G, 4° C., 15 minutes). Each of the collected Escherichia coli strains was resuspended in 1 mL of a TB culture solution (product of Difco) and chloramphenicol (30 mg/L) and IPTG (100 μM) were added thereto. Shake culture at 37° C. for 3 hours induced expression of phoA, torA, and pdxA.
(3) Subsequently, harvesting using a centrifuge was carried out again (4,000 G, 4° C., 15 minutes). Each of the collected Escherichia coli strains was resuspended in 2.5 mL of a Tris-NaCl buffer solution (50 mM Tris (pH 7.5), 100 mM NaCl). The resulting solution was divided into 25-μL portions at a time to be mixed with 25 μL of a Tris-NaCl buffer solution.
(4) Then, the solution was allowed to stand at 37° C. for 1 hour. The supernatant solution was collected and diluted in a Tris-NaCl buffer solution to a proper concentration. Here, the quantification of the recombinant protein in the resulting solution was carried out by ELISA assay with use of an anti-His-tag antibody. The sample prior to the centrifugation in the process (3) was treated with ultrasonic waves (200 W, 10 minutes) and the quantification of the recombinant protein therein was similarly carried out by ELISA assay with use of an anti-His-tag antibody. The ratio of lysed bacteria was obtained with use of Escherichia coli (γ), and the secretion efficiencies of the recombinant proteins of Escherichia coli (α) and (β) were calculated by using the following formula. […] Secretion efficiency (%)=100×{(X/Y)−Z}.
In the formula, “X” represents the amount of the recombinant protein in the culture solution after removal of bacterial cells by centrifugation in the case of using Escherichia coli (α) or (β).
“Y” represents the amount of the whole recombinant protein in the culture solution in the case of using Escherichia coli (α) or (β).
“Z” represents the ratio of lysed bacteria obtained with use of Escherichia coli (γ), which is determined by the following formula: Z=Z1/Z2.
In the formula, “Z1” represents the amount of the recombinant protein in the culture solution which remains after removal of bacterial cells by centrifugation in the case of using Escherichia coli (γ).
“Z2” represents the amount of the whole recombinant protein in the culture solution in the case of using Escherichia coli (γ).
Escherichia coli (α) and (β) were each cultured in the same manner as in the above case except that polyoxyethylene (3 mol) tridecyl ether sodium acetate as the surfactant (A) was added right after the resuspension of the Escherichia coli in the buffer solution in the process (3) of A-0, in an amount of 1% by weight on the basis of the weight of the suspension of the bacterium. The secretion efficiency was calculated according to the above-mentioned definition.

Compound | Secretion efficiency (%) Escherichia coli (α) [%]
Polyoxyethylene(3 mol)tridecyl ether sodium acetate [A-1] | 100.0
CCCCCCCCCCCCCCCC[N+](C)(C)C.[Cl-] [A-14, Cetyl trimethyl ammonium chloride] | 37.8
Sodium cocaminopropionate [A-7] | 85.0
Cured palm oil fatty acid amidopropyl dimethyl aminoacetate betaine [A-6] | 87.6
